In one assay the test system is HEK293. The experiment in a line: EBV LMP1 TES2 canonical NF-kB signalling blockers – cell-based, HEK293, luciferase, cherry-pick, dose response (AID 588343). It is filed as functional. Conditions: Homo sapiens.
The target in assay [1] is T1, Interleukin-8 (Homo sapiens, UniProt P10145).
T1 sequence (P10145 whole entry): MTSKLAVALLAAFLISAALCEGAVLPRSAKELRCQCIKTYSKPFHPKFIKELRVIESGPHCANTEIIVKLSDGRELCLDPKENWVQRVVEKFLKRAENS
The experiment in a line: Dose Response confirmation of uHTS small molecule hits for cystic fibrosis induced NFkb Inhibitors in a TNFa-induced IL8 counterscreen. In kind it is functional. Conditions: read-out: IC50_Mean. (In general: Counterscreens check selectivity or assay interference.)

In assay [2] the target is T1, Interleukin-8. As to the kind of experiment: Dose Response confirmation of uHTS small molecule hits for cystic fibrosis induced NFkb Inhibitors in a PAF-induced IL8 counterscreen. It is filed as functional. The settings on record: read-out: IC50_Mean.
A short description of assay [3]: HepG2 cell cytotoxicity, cytotoxicity control, set 4 (AID 504910). It is filed as functional. Conditions: Mycobacterium tuberculosis.
In assay [4] the target is T2, Tyrosine-protein phosphatase non-receptor type 7 (Homo sapiens, UniProt P35236).
T2 sequence (P35236 whole entry): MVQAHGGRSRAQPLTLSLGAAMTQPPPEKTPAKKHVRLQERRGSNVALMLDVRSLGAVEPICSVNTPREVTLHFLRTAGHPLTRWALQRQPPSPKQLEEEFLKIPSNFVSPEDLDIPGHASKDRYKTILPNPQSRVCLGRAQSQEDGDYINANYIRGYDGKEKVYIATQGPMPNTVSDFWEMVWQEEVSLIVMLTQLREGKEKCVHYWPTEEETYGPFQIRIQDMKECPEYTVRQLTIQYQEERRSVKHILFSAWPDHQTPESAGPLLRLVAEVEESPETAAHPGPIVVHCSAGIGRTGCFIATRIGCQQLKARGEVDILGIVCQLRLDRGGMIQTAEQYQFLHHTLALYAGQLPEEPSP
It is filed as functional.

The subject of another assay is HeLa. The experiment in a line: viability loss in HeLa cells – cell-based, 24 h, cherry-picked samples, cytotoxicity control, dose response (AID 504726).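 Further: potency for cytotoxicity as loss of luminescence signal.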 It is filed as functional. Conditions: Homo sapiens.
The target in assay [5] is 26S proteasome non-ATPase regulatory subunit 14 (Homo sapiens, UniProt O00487). As to the kind of experiment: inhibition of proteasome subunit RPN11 – biochemical, fluorescence polarization, uHTS hits, confirmation (AID 602368). It is filed as functional. A general note: Polarisation of emitted light reports the rotation of a fluorescent probe.
The target in assay [6] is Eukaryotic translation initiation factor 4E (Mus musculus, UniProt P63073). As to the kind of experiment: blockers of eIF4G binding by eIF4E – biochemical, TR-FRET, dose response (AID 855).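 Further: potency for disrupting eIF4E binding to eIF4GI seen as loss of FRET.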 In kind it is functional.
In the next assay the target is Prothrombin (Bos taurus, UniProt P00735). As to the kind of experiment: thrombin protease inhibitors – biochemical, fluorescence polarization, uHTS hits, dose response (AID 602369). It is filed as functional.
In assay [7] the target is T3, Lysine-specific demethylase 4C (Homo sapiens, UniProt Q9H3R0).
T3 sequence (Q9H3R0 whole entry): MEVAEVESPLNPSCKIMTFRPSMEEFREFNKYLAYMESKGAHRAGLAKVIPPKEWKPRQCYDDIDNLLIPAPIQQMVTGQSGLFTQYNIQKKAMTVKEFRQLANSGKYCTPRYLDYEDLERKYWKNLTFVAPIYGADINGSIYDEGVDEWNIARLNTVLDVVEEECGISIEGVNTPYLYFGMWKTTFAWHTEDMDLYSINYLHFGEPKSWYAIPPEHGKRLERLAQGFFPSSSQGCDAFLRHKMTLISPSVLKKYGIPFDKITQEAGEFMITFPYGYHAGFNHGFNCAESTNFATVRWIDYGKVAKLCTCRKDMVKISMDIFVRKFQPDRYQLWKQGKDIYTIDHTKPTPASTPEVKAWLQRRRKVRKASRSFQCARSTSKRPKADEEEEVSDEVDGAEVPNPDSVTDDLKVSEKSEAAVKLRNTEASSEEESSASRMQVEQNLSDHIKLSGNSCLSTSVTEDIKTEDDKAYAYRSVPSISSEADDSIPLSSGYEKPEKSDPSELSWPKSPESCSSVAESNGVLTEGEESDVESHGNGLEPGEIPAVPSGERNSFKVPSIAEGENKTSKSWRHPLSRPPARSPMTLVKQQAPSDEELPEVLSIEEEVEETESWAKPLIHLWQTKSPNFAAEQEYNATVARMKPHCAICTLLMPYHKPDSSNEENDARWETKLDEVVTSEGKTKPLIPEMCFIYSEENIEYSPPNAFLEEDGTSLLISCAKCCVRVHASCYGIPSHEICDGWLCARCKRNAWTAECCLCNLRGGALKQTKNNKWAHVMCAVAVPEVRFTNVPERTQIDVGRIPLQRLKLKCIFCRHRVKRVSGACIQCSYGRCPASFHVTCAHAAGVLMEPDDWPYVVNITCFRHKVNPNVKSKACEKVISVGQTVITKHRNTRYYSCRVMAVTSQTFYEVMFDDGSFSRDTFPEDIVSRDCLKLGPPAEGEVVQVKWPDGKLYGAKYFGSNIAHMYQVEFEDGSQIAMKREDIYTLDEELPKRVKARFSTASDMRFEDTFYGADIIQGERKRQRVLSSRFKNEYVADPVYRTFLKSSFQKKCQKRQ
As to the kind of experiment: inhibition of JMJD2C H3K9me3 demethylation – biochemical, DELFIA europium, cherry-picked samples, dose response (AID 488835). In kind it is functional.

For assay [8], the target named is DNA (cytosine-5)-methyltransferase 1 (Homo sapiens, UniProt P26358). As to the kind of experiment: inhibition of DNA methylation by DNMT1 – biochemical, fluorescent molecular beacon, confirmation (AID 602386). It is filed as functional.
For assay [9], the target named is Glyceraldehyde-3-phosphate dehydrogenase (Homo sapiens, UniProt P04406).
Assay [10] has as its target T4, Dual specificity protein phosphatase 6 (Rattus norvegicus, UniProt Q64346).
T4 sequence (Q64346 whole entry): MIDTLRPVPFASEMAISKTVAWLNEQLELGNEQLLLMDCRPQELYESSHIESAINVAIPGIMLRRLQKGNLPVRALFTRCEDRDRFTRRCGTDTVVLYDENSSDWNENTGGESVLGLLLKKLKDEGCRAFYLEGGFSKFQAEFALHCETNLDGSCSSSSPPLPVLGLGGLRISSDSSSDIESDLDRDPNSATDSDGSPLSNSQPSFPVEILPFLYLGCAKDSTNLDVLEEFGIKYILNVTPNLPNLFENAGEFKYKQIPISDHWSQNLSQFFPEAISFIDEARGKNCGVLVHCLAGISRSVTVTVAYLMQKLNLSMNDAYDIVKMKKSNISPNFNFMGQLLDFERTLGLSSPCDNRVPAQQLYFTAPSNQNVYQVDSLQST
The experiment in a line: inhibition of rat DUSP6 enzyme activity – biochemical, in vitro, primary screen (AID 425).

In assay [11] the target is T4, Dual specificity protein phosphatase 6.
Assay [12] deals with Heat shock 70 kDa protein 1A (Homo sapiens, UniProt P0DMV8). As to the kind of experiment: inhibition of Hsp70 binding activity – biochemical, fluorescence polarization, SAR follow-up (AID 1072).
Assay [13] deals with 72 kDa type IV collagenase (Homo sapiens, UniProt P08253). The experiment in a line: Dose Response validation of uHTS RPN11 inhibitor hits using a MMP-2 Fluorescence assay. In kind it is functional.
The target in assay [14] is T4, Dual specificity protein phosphatase 6. In kind it is functional.
For the next assay, the target named is Large T antigen (Simian virus 40, UniProt P03070). In kind it is functional, Betapolyomavirus macacae.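 Further: Confirmatory-stage PubChem screen for compounds that inhibit SV40 T antigen.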
In assay [15] the target is Heat shock cognate 71 kDa protein (Homo sapiens, UniProt P11142). The experiment in a line: In Vitro Hsc70 Dose Response Fluorescence Polarization Assay. [Related pubchem assays: 1072 ].
For another assay, the target named is ORF 73 (Human herpesvirus 8, UniProt O40947). The experiment in a line: KSHV LANA DNA-binding disruption – biochemical, fluorescence polarization, cherry-picked samples, dose response (AID 504725).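 Further: fluorescence polarization of a labeled DNA duplex reporting LANA DNA binding; potency is for inhibitors that block LANA binding to the DNA.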 The arrangement: species or system Human gammaherpesvirus 8.

Active and inactive are the calls of the source. A value given as a limit tells only on which side of the number the result lay.

26S proteasome non-ATPase regulatory subunit 14, sequence (O00487 whole entry): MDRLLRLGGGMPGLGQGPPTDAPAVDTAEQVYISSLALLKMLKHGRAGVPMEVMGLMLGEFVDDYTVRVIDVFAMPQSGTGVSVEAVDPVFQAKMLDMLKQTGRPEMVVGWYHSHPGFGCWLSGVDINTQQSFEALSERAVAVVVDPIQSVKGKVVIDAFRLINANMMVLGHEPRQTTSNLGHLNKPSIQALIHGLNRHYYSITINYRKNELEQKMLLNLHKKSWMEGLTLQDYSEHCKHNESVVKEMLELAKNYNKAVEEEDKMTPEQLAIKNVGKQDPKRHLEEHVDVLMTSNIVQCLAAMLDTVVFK
Heat shock cognate 71 kDa protein, sequence (P11142 whole entry): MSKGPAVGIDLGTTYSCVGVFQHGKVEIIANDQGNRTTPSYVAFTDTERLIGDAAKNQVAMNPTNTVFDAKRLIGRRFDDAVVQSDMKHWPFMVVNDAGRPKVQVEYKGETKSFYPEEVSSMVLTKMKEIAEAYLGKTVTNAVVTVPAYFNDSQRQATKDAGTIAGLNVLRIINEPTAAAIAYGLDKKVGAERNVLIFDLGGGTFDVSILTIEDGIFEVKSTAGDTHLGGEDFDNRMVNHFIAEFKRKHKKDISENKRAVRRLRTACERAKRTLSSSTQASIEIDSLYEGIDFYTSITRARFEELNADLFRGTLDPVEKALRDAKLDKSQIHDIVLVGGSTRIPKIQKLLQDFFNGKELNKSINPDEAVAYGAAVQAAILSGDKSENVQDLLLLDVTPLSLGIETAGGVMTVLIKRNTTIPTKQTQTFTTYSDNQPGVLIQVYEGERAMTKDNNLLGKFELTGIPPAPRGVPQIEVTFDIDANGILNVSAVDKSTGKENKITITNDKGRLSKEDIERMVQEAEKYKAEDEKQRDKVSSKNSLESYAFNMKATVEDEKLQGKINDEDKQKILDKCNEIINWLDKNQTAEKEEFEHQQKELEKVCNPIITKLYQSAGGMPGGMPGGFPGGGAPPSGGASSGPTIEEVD
Heat shock 70 kDa protein 1A, sequence (P0DMV8 whole entry): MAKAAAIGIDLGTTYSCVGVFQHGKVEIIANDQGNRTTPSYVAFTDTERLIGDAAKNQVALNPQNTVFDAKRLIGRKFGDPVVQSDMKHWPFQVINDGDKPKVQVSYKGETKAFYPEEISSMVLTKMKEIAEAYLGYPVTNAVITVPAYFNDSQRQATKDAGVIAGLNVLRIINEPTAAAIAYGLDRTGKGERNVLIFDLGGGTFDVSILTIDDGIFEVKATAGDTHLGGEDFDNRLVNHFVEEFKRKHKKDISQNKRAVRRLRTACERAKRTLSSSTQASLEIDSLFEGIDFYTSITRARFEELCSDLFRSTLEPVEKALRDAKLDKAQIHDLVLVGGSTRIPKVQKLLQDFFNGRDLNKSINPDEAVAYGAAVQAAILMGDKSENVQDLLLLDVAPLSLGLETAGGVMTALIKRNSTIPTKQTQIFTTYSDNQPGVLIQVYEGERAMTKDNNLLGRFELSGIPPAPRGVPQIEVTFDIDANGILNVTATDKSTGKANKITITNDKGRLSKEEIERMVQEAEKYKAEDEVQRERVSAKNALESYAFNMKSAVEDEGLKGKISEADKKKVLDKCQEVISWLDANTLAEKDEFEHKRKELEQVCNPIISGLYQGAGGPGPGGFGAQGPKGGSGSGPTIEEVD
DNA (cytosine-5)-methyltransferase 1, sequence (P26358 whole entry): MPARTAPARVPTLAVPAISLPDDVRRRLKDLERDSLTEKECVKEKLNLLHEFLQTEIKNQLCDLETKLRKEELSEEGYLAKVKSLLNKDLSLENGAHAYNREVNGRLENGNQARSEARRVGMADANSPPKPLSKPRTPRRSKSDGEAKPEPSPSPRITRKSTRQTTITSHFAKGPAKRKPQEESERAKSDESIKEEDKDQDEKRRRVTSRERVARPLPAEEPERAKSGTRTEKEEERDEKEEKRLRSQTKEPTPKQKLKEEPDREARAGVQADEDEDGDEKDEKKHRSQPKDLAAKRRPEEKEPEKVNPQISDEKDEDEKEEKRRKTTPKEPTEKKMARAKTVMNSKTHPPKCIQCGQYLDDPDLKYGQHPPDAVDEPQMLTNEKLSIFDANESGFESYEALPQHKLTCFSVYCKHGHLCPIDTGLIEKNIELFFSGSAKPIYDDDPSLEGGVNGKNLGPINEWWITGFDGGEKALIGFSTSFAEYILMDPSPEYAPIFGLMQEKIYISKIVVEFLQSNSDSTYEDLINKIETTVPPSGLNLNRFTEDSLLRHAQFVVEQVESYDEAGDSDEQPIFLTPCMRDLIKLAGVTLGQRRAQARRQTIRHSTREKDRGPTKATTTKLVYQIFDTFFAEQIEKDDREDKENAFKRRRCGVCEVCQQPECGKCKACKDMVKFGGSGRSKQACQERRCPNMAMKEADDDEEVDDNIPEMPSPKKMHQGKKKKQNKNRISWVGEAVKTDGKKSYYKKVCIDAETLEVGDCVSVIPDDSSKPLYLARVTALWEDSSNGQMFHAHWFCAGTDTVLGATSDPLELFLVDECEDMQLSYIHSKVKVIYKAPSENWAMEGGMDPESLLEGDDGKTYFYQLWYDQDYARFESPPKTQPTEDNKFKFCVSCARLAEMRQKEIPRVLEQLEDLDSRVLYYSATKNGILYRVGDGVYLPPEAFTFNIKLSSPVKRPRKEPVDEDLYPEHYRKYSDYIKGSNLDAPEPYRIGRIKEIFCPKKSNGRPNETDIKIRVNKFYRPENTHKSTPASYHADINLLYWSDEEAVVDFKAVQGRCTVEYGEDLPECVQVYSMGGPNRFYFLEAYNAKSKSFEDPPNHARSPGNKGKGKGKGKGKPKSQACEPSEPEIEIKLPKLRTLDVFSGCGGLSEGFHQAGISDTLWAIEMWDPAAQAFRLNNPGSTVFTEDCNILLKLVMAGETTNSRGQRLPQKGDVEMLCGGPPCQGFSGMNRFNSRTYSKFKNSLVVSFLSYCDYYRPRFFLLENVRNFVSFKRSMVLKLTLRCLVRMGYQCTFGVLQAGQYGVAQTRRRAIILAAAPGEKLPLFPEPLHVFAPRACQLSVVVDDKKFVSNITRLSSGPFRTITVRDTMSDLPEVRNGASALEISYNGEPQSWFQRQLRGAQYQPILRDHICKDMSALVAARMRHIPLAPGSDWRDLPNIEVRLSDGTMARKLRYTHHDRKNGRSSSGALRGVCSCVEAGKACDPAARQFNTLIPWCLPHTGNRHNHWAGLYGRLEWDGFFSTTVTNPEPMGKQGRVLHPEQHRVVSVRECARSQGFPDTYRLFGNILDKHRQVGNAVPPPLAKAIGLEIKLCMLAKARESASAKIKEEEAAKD
ORF 73, sequence (O40947 whole entry): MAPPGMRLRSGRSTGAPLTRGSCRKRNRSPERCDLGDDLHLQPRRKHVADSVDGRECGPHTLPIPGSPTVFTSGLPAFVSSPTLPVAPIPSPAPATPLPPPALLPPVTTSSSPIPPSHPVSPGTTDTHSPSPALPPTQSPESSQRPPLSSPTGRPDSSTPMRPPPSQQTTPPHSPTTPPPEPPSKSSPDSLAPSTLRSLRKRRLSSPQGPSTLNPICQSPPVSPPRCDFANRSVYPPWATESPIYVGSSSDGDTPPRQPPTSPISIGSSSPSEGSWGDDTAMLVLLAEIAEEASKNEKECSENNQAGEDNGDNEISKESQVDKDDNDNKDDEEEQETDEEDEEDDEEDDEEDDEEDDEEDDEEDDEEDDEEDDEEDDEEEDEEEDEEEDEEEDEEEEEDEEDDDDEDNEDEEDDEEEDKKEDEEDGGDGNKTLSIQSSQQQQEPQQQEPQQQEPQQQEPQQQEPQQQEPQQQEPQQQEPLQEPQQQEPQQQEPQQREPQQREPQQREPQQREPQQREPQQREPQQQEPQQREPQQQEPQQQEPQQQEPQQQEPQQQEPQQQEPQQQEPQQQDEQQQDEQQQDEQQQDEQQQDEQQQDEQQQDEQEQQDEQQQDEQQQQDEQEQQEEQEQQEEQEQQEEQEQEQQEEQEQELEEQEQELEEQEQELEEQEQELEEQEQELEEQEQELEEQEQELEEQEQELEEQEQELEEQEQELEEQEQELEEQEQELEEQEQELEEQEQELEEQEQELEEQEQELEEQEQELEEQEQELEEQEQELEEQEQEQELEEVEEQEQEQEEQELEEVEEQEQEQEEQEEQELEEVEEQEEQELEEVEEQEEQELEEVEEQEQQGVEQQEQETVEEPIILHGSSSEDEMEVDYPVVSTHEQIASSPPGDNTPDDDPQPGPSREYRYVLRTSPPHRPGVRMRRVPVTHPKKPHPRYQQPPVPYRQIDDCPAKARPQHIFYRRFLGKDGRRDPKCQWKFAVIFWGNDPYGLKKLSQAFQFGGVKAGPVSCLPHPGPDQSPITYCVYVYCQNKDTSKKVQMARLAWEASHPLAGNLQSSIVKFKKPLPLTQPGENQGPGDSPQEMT
Eukaryotic translation initiation factor 4E, sequence (P63073 whole entry): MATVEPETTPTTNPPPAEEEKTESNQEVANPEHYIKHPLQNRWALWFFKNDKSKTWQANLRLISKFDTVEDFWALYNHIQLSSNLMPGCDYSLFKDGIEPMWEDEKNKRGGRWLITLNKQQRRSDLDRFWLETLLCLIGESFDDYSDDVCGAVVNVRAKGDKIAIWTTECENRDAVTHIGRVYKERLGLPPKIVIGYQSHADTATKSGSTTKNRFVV
Glyceraldehyde-3-phosphate dehydrogenase, sequence (P04406 whole entry): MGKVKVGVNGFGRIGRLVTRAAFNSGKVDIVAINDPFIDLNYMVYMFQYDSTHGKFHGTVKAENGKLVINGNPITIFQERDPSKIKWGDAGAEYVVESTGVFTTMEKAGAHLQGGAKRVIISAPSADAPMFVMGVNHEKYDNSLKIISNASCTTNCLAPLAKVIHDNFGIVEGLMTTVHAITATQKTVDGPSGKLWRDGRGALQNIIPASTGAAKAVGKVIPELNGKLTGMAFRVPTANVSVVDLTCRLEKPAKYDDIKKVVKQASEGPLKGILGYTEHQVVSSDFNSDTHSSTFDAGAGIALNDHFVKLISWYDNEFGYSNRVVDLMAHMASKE

Broadly, the AC50 is the concentration giving half of the maximal activity seen. Regarding `Nc1ncnc(N2CCc3ccccc32)c1[N+](=O)[O-]`, the AC50 in the assay with HEK293 was 4.52 µM (active). For the same compound, the figures for the IC50 on Interleukin-8 [1] and at Interleukin-8 [2] were 40.1 µM (inactive) and > 79 µM (inactive), respectively.

In general, CC50 refers to the concentration giving 50% cytotoxicity. Regarding `Cc1nc(SCC(=O)NC2CCCCC2)nc(O)c1C`, the cytotoxic concentration (CC50) in assay [3] was > 50 µM (active).

For the compound `O=C1CC(=O)N(Cc2ccco2)C(=O)N1`, the IC50 is 5.11 µM (active) in [4]; 9.99 µM (active) in assay [5]; > 64 µM (inactive) in [6]; 59.1 µM (active) on Prothrombin; 1.58 µM (active) in assay [8]; > 100 µM (not active) in assay [9]. The IC50 in assay [10] is > 10 µM (not active); in [11], > 100 µM (inactive); in [12], > 100 µM (not active); in assay [13], 1.04 µM (active); in [14] it was > 100 µM (inactive); at Large T antigen, 76.3 µM (active). For the same compound, in assay [15], the IC50 is reported as > 100 µM (not active). The AC50 was > 350 µM (inactive) with HeLa, 11.2 µM (active) in assay [7] and 132 µM (active) on ORF 73.

The values are drawn from ChEMBL document CHEMBL1201862, “PubChem BioAssay data set” (2004).
